Experimental data: ChEMBL document CHEMBL1201861, “Genomics of Drug Sensitity in Cancer screening data, Wellcome Trust Sanger Institute”
pIC50: −log10 of the molar value.

Columns and labels:
Test in all cases: cells
Details in all cases: Homo sapiens
Ca-Ski = type: functional, cell-based;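 note: cell viability assay measuring inhibition of Ca-Ski cell growth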
Description: SANGER: Inhibition of human Ca-Ski cell growth in a cell viability assay.

Ca9-22 = type: functional, cell-based;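 note: growth inhibition of Ca9-22 cells, read out with a cell viability assay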
Description: SANGER: Inhibition of human Ca9-22 cell growth in a cell viability assay.

EFO-21 = type: functional, cell-based;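 note: growth inhibition of EFO-21 cells measured with a viability assay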
Description: SANGER: Inhibition of human EFO-21 cell growth in a cell viability assay.

GAMG = type: functional, cell-based;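 note: cell growth inhibition measured by a viability assay in the GAMG human cell line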
Description: SANGER: Inhibition of human GAMG cell growth in a cell viability assay.

GCT = type: functional, cell-based;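 note: GCT cell line proliferation inhibition, read out with a cell viability assay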
Description: SANGER: Inhibition of human GCT cell growth in a cell viability assay.

GMS-10 = type: functional, cell-based;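 note: growth inhibition of GMS-10 cells, read out as cell viability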
Description: SANGER: Inhibition of human GMS-10 cell growth in a cell viability assay.

HCC1806 = type: functional, cell-based;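 note: growth inhibition of the cancer cell line, determined with a cell viability assay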
Description: SANGER: Inhibition of human HCC1806 cell growth in a cell viability assay.

HCC1954 = type: functional, cell-based;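 note: growth inhibition of human HCC1954 cells, read out with a cell viability assay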
Description: SANGER: Inhibition of human HCC1954 cell growth in a cell viability assay.

HGC-27 = type: functional, cell-based;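 note: growth inhibition of human HGC-27 cells, read out in a cell viability assay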
Description: SANGER: Inhibition of human HGC-27 cell growth in a cell viability assay.

HT-29 = type: functional, cell-based;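 note: growth inhibition of human HT-29 cells, read out by a cell viability assay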
Description: SANGER: Inhibition of human HT-29 cell growth in a cell viability assay.

HTC-C3 = type: functional, cell-based;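 note: inhibition of cell growth, read out with a cell viability assay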
Description: SANGER: Inhibition of human HTC-C3 cell growth in a cell viability assay.

Huh-7 = type: functional, cell-based;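 note: HuH-7 cell growth inhibition, read out with a cell viability assay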
Description: SANGER: Inhibition of human HuH-7 cell growth in a cell viability assay.

HuO-3N1 = type: functional, cell-based;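 note: cell viability readout used to measure how strongly compounds suppress proliferation of human HuO-3N1 cells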
Description: SANGER: Inhibition of human HuO-3N1 cell growth in a cell viability assay.

HuP-T3 = type: functional, cell-based;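 note: HuP-T3 cell growth inhibition, read out with a cell viability assay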
Description: SANGER: Inhibition of human HuP-T3 cell growth in a cell viability assay.

J82 = type: functional, cell-based;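 note: growth inhibition of J82 cells, read out with a cell viability assay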
Description: SANGER: Inhibition of human J82 cell growth in a cell viability assay.

JEG-3 = type: functional, cell-based;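 note: growth inhibition of human JEG-3 cells, read out with a cell viability assay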
Description: SANGER: Inhibition of human JEG-3 cell growth in a cell viability assay.

KYSE-410 = type: functional, cell-based;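 note: growth inhibition of KYSE-410 cells, measured through a cell viability readout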
Description: SANGER: Inhibition of human KYSE-410 cell growth in a cell viability assay.

KYSE-450 = type: functional, cell-based;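 note: cell growth inhibition measured by a viability assay in human KYSE-450 cells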
Description: SANGER: Inhibition of human KYSE-450 cell growth in a cell viability assay.

KYSE-510 = type: functional, cell-based;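 note: cell viability readout used to measure how strongly growth of the cell line is suppressed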
Description: SANGER: Inhibition of human KYSE-510 cell growth in a cell viability assay.

LK-2 = type: functional, cell-based;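 note: growth inhibition of LK-2 cells, read out with a viability assay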
Description: SANGER: Inhibition of human LK-2 cell growth in a cell viability assay.

MKN-1 = type: functional, cell-based;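 note: growth inhibition of human MKN1 cells, read out by a cell viability measurement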
Description: SANGER: Inhibition of human MKN1 cell growth in a cell viability assay.

NB17 = type: functional, cell-based;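 note: growth inhibition of NB17 cells, read out with a cell viability assay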
Description: SANGER: Inhibition of human NB17 cell growth in a cell viability assay.

NCI-H1792 = type: functional, cell-based;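 note: growth inhibition of human NCI-H1792 cells, read out as cell viability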
Description: SANGER: Inhibition of human NCI-H1792 cell growth in a cell viability assay.

NCI-H2405 = type: functional, cell-based;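 note: growth inhibition of the human cell line, read out with a cell viability assay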
Description: SANGER: Inhibition of human NCI-H2405 cell growth in a cell viability assay.

NCI-H292 = type: functional, cell-based;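 note: growth inhibition of NCI-H292 cells, read out with a cell viability assay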
Description: SANGER: Inhibition of human NCI-H292 cell growth in a cell viability assay.

NCI-H727 = type: functional, cell-based;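 note: growth inhibition of human NCI-H727 cells, read out with a cell viability assay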
Description: SANGER: Inhibition of human NCI-H727 cell growth in a cell viability assay.

NCI-N87 = type: functional, cell-based;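 note: growth inhibition of human NCI-N87 cells, read out with a cell viability assay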
Description: SANGER: Inhibition of human NCI-N87 cell growth in a cell viability assay.

OE19 = type: functional, cell-based;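 note: growth inhibition of OE19 cells, measured through a cell viability read-out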
Description: SANGER: Inhibition of human OE19 cell growth in a cell viability assay.

PA-1 = type: functional, cell-based;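 note: IC50 for suppression of PA-1 cell proliferation, determined with a cell viability read-out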
Description: SANGER: Inhibition of human PA-1 cell growth in a cell viability assay.

RCM-1 = type: functional, cell-based;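 note: growth inhibition of the RCM-1 line, determined with a cell viability readout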
Description: SANGER: Inhibition of human RCM-1 cell growth in a cell viability assay.

RD = type: functional, cell-based
Description: SANGER: Inhibition of human RD cell growth in a cell viability assay.

RPMI-7951 = type: functional, cell-based
Description: SANGER: Inhibition of human RPMI-7951 cell growth in a cell viability assay.

SAS = type: functional, cell-based;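 note: growth inhibition of SAS cells, read out with a cell viability assay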
Description: SANGER: Inhibition of human SAS cell growth in a cell viability assay.

SCC-25 = type: functional, cell-based;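 note: growth inhibition of SCC-25 cells, measured with a cell viability assay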
Description: SANGER: Inhibition of human SCC-25 cell growth in a cell viability assay.

SK-HEP1 = type: functional, cell-based, SK-HEP-1;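 note: cell viability readout used to quantify reduction in proliferation of human SK-HEP-1 cells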
Description: SANGER: Inhibition of human SK-HEP-1 cell growth in a cell viability assay.

SK-MEL3 = type: functional, cell-based, SK-MEL-3;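 note: growth inhibition of human SK-MEL-3 cells, read out with a cell viability assay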
Description: SANGER: Inhibition of human SK-MEL-3 cell growth in a cell viability assay.

SNU-449 = type: functional, cell-based
Description: SANGER: Inhibition of human SNU-449 cell growth in a cell viability assay.

SW1417 = type: functional, cell-based;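 note: growth inhibition of human SW1417 cells, read out with a cell viability assay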
Description: SANGER: Inhibition of human SW1417 cell growth in a cell viability assay.

SW1710 = type: functional, cell-based;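 note: growth inhibition of SW1710 cells, determined with a cell viability assay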
Description: SANGER: Inhibition of human SW1710 cell growth in a cell viability assay.

ABC-1 = type: functional, cell-based;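 note: growth inhibition of human ABC-1 cells, read out by a cell viability assay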
Description: SANGER: Inhibition of human ABC-1 cell growth in a cell viability assay.

BPH-1 = type: functional, cell-based;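 note: cell viability assay measuring growth inhibition of human BPH-1 cells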
Description: SANGER: Inhibition of human BPH-1 cell growth in a cell viability assay.

C-33-A = type: functional, cell-based;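 note: cell viability assay measuring growth inhibition of C-33-A cells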
Description: SANGER: Inhibition of human C-33-A cell growth in a cell viability assay.

CAL-120 = type: functional, cell-based;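 note: cell growth inhibition, read out as cell viability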
Description: SANGER: Inhibition of human CAL-120 cell growth in a cell viability assay.

CAL-39 = type: functional, cell-based;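 note: cell viability assay measuring growth inhibition of CAL-39 cells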
Description: SANGER: Inhibition of human CAL-39 cell growth in a cell viability assay.

CAL-72 = type: functional, cell-based;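 note: cell viability assay measuring inhibition of proliferation in the CAL-72 cell line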
Description: SANGER: Inhibition of human CAL-72 cell growth in a cell viability assay.

TGW = type: functional, cell-based;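 note: growth inhibition of human TGW cells, read out with a cell viability assay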
Description: SANGER: Inhibition of human TGW cell growth in a cell viability assay.

U2OS = type: functional, cell-based, U-2-OS;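 note: growth inhibition of human U-2-OS cells, determined with a cell viability assay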
Description: SANGER: Inhibition of human U-2-OS cell growth in a cell viability assay.

U-251 = type: functional, cell-based;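 note: growth inhibition of human U-251 cells, read out through a cell viability assay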
Description: SANGER: Inhibition of human U251 cell growth in a cell viability assay.

UMUC3 = type: functional, cell-based;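 note: growth inhibition of human UM-UC-3 cells, read out with a cell viability assay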
Description: SANGER: Inhibition of human UM-UC-3 cell growth in a cell viability assay.

YKG-1 = type: functional, cell-based;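 note: cell growth inhibition, read out with a viability assay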
Description: SANGER: Inhibition of human YKG-1 cell growth in a cell viability assay.

COLO-678 = type: functional, cell-based
Description: SANGER: Inhibition of human COLO-678 cell growth in a cell viability assay.

Measured: pIC50

CCCS(=O)(=O)Nc1ccc(F)c(C(=O)c2c[nH]c3ncc(Cl)cc23)c1F [PLX-4720]
5.78: HTC-C3
5.54: HuO-3N1
5.06: GCT
5.56: PA-1
< 5.00: Ca-Ski | Ca9-22 | EFO-21 | GAMG | GMS-10 | HCC1954 | HGC-27 | HT-29 | Huh-7 | HuP-T3 | J82 | JEG-3 | KYSE-410 | KYSE-450 | KYSE-510 | LK-2 | MKN-1 | NB17 | NCI-H1792 | NCI-H2405 | NCI-H292 | NCI-H727 | NCI-N87 | OE19 | RCM-1 | RD | SAS | SCC-25 | SK-HEP1 | SNU-449 | SW1417 | SW1710 | ABC-1 | BPH-1 | C-33-A | CAL-120 | CAL-39 | TGW | U2OS | U-251 | UMUC3 | YKG-1 | COLO-678
5.19: CAL-72
6.29: SK-MEL3
5.17: HCC1806
5.24: RPMI-7951

C[C@]1(c2nc3c(C(N)=O)cccc3[nH]2)CCCN1 [VELIPARIB]
< 5.30: Ca-Ski | Ca9-22 | EFO-21 | GAMG | GCT | GMS-10 | HCC1806 | HCC1954 | HGC-27 | HT-29 | HTC-C3 | Huh-7 | HuO-3N1 | HuP-T3 | J82 | JEG-3 | KYSE-410 | KYSE-450 | KYSE-510 | LK-2 | MKN-1 | NB17 | NCI-H1792 | NCI-H2405 | NCI-H292 | NCI-H727 | NCI-N87 | OE19 | PA-1 | RCM-1 | RD | RPMI-7951 | SAS | SCC-25 | SK-HEP1 | SK-MEL3 | SNU-449 | SW1417 | SW1710 | ABC-1 | BPH-1 | C-33-A | CAL-120 | CAL-39 | CAL-72 | U2OS | U-251 | UMUC3 | YKG-1 | COLO-678

CC[C@]1(O)C[C@@H]2CN(CCc3c([nH]c4ccccc34)[C@@](C(=O)OC)(c3cc4c(cc3OC)N(C)[C@H]3[C@@](O)(C(=O)OC)[C@H](OC(C)=O)[C@]5(CC)C=CCN6CC[C@]43[C@@H]65)C2)C1 [VINBLASTINE]
8.25: NCI-N87 | SW1710
7.55: SAS
7.75: HuP-T3
8.03: KYSE-410
8.52: NCI-H292
7.92: SK-HEP1
8.30: U-251
7.06: Huh-7 | CAL-120
8.32: HuO-3N1
8.12: LK-2
8.99: HGC-27
7.34: HT-29
7.36: EFO-21
8.23: KYSE-510
7.71: GAMG
8.38: RD
8.33: Ca-Ski | GCT
8.49: BPH-1
8.00: MKN-1
8.36: NCI-H1792
< 7.00: HCC1954 | NCI-H2405 | NCI-H727 | OE19 | RCM-1 | SK-MEL3 | SNU-449 | SW1417 | CAL-72 | COLO-678
7.90: JEG-3 | C-33-A
7.98: HTC-C3
8.19: Ca9-22
8.78: RPMI-7951
7.59: U2OS
9.20: HCC1806
8.26: YKG-1
8.29: CAL-39 | UMUC3
8.02: KYSE-450
7.81: ABC-1
7.66: NB17
7.16: J82
7.95: GMS-10
8.09: PA-1
7.80: SCC-25
